Measurements reported in patent publication US11420935B2, “Bicyclic compounds” (Vivace Therapeutics, Inc., priority 2019, dated 2022).

Each molecule was assayed on 8×TBD luciferase reporter (YAP) in HEK293T cells (assay: YAP Reporter Assay (8×TBD firefly luciferase reporter)). Conditions: Homo sapiens, HEK-293T, 24 h, read-out: Firefly Luciferase IC50 (μM).
Format: cell-based
Summary of the method: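 Stably transfected HEK293T cells (8×TBD firefly luciferase plus TK-renilla) were dosed with 10-point 1:3 dilutions from 3 μM final, quadruplicates, for 24 h at 37 °C. Dual-Glo read firefly and renilla luminescence; IC50 and maximal inhibition reported separately for each.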

Q: For COc1cc(Oc2ccc(C(F)(F)F)cc2)c2ncc(C(=O)NC(C)C)cc2c1 [Compound 113, N-Isopropyl-6-methoxy-8-(4-(trifluoromethyl)phenoxy)quinoline-3-carboxamide], which IC50 is on record?
A: < 0.1 µM

Q: With C[C@H](NC(=O)c1ccc2c(Oc3ccc(C(F)(F)F)cc3)cccc2c1)C1CN(CCO)C1 [Compound 128, (S)—N-(1-(1-(2-hydroxyethyl)azetidin-3-yl)ethyl)-5-(4-(trifluoromethyl)phenoxy)-2-naphthamide] as the molecule, how does the IC50 read?
A: 0.1 to 1 µM

Q: C[C@@H](NC(=O)c1ccc2c(Oc3ccc(C(F)(F)F)cc3)cccc2c1)C1CN(CCO)C1 [Compound 135, (R)—N-(1-(1-(2-hydroxyethyl)azetidin-3-yl)ethyl)-5-(4-(trifluoromethyl)phenoxy)-2-naphthamide] was tested. Which IC50 did it give?
A: 0.1 to 1 µM

Same assay, conditions: Homo sapiens, HEK-293T; HEK293T cells stably transfected with 8×TBD luciferase reporter and pRLTK; 24-hr incubation; firefly luciferase activity; read-out: Firefly Luciferase IC50

Q: C[C@@H](NC(=O)c1ccc2c(Oc3ccc(C(F)(F)F)cc3)cccc2c1)c1cccc2ccc(=O)[nH]c12 [Compound 98, N-[(1R)-1-(2-oxo-1H-quinolin-8-yl)ethyl]-5-[4-(trifluoromethyl)phenoxy]naphthalene-2-carboxamide] was tested. Which IC50 did it give?
A: < 0.1 µM

Q: Which IC50 does the source give for CC(=O)N1CC([C@H](C)NC(=O)c2ccc3c(Oc4ccc(C(F)(F)F)cc4)cccc3c2)C1 [Compound 100, (S)—N-(1-(1-acetylazetidin-3-yl)ethyl)-5-(4-(trifluoromethyl)phenoxy)-2-naphthamide] here?
A: 0.1 to 1 µM

Q: How did the IC50 turn out when CC(=O)N1CC([C@@H](C)NC(=O)c2ccc3c(Oc4ccc(C(F)(F)F)cc4)cccc3c2)C1 [Compound 101, (R)—N-(1-(1-acetylazetidin-3-yl)ethyl)-5-(4-(trifluoromethyl)phenoxy)-2-naphthamide] was run?
A: 0.1 to 1 µM

Q: With C[C@H](CO)NC(=O)c1cnc2c(Oc3ccc(C(F)(F)F)cc3)cc(F)c(F)c2c1 [Compound 102, (R)-5,6-difluoro-N-(1-hydroxypropan-2-yl)-8-(4-(trifluoromethyl)phenoxy)quinoline-3-carboxamide] as the molecule, how does the IC50 read?
A: < 0.1 µM

Q: For C[C@@H](NC(=O)c1cnc2c(Oc3ccc(C(F)(F)F)cc3)cccc2c1)c1cccc2nc[nH]c12 [Compound 103, (R)—N-(1-(1H-benzo[d]imidazol-7-yl)ethyl)-8-(4-(trifluoromethyl)phenoxy)quinoline-3-carboxamide], which IC50 is on record?
A: 0.1 to 1 µM

Q: How did the IC50 turn out when C[C@H](NC(=O)c1cnc2c(Oc3ccc(C(F)(F)F)cc3)cccc2c1)c1cccc2nc[nH]c12 [Compound 104, (S)—N-(1-(1H-benzo[d]imidazol-7-yl)ethyl)-8-(4-(trifluoromethyl)phenoxy)quinoline-3-carboxamide] was run?
A: < 0.1 µM

Q: For C[C@@H](NC(=O)c1cnc2c(Oc3ccc(C(F)(F)F)cc3)cccc2c1)c1cccc2ccsc12 [Compound 105, (R)—N-(1-(benzo[b]thiophen-7-yl)ethyl)-8-(4-(trifluoromethyl)phenoxy)quinoline-3-carboxamide], which IC50 is on record?
A: 0.1 to 1 µM

Q: With C[C@H](CN)NC(=O)c1ccc2c(Oc3ccc(C(F)(F)F)cc3)cccc2c1 [Compound 107, (R)—N-(1-aminopropan-2-yl)-5-(4-(trifluoromethyl)phenoxy)-2-naphthamide] as the molecule, how does the IC50 read?
A: 0.1 to 1 µM

Q: C[C@@H](CN)NC(=O)c1ccc2c(Oc3ccc(C(F)(F)F)cc3)cccc2c1 [Compound 108, (S)—N-(1-aminopropan-2-yl)-5-(4-(trifluoromethyl)phenoxy)-2-naphthamide] was tested. Which IC50 did it give?
A: < 0.1 µM

Q: How did the IC50 turn out when O=C(N[C@H](CCO)c1ccccn1)c1ccc2c(Oc3ccc(C(F)(F)F)cc3)cccc2c1 [Compound 109, (R)—N-(3-hydroxy-1-(pyridin-2-yl)propyl)-5-(4-(trifluoromethyl)phenoxy)-2-naphthamide] was run?
A: 0.1 to 1 µM

Q: How did the IC50 turn out when O=C(N[C@@H](CCO)c1ccccn1)c1ccc2c(Oc3ccc(C(F)(F)F)cc3)cccc2c1 [Compound 110, (S)—N-(3-hydroxy-1-(pyridin-2-yl)propyl)-5-(4-(trifluoromethyl)phenoxy)-2-naphthamide] was run?
A: < 0.1 µM

Q: With C[C@@H](CCN)NC(=O)c1ccc2c(Oc3ccc(C(F)(F)F)cc3)cccc2c1 [Compound 111, (S)—N-(4-aminobutan-2-yl)-5-(4-(trifluoromethyl)phenoxy)-2-naphthamide] as the molecule, how does the IC50 read?
A: < 0.1 µM

Q: How did the IC50 turn out when C[C@H](CCN)NC(=O)c1ccc2c(Oc3ccc(C(F)(F)F)cc3)cccc2c1 [Compound 112, (R)—N-(4-aminobutan-2-yl)-5-(4-(trifluoromethyl)phenoxy)-2-naphthamide] was run?
A: < 0.1 µM

Q: How did the IC50 turn out when C[C@H](CCO)NC(=O)c1ccc2c(Oc3ccc(C(F)(F)F)cc3)cccc2c1 [Compound 114, (R)—N-(4-hydroxybutan-2-yl)-5-(4-(trifluoromethyl)phenoxy)-2-naphthamide] was run?
A: < 0.1 µM

Q: Which IC50 does the source give for C[C@@H](CCO)NC(=O)c1ccc2c(Oc3ccc(C(F)(F)F)cc3)cccc2c1 [Compound 115, (S)—N-(4-hydroxybutan-2-yl)-5-(4-(trifluoromethyl)phenoxy)-2-naphthamide] here?
A: < 0.1 µM

Q: COc1cc(Oc2ccc(C(F)(F)F)cc2)c2ncc(C(=O)N[C@H](C)CO)cc2c1 [Compound 116, (R)—N-(1-hydroxypropan-2-yl)-6-methoxy-8-(4-(trifluoromethyl)phenoxy)quinoline-3-carboxamide] was tested. Which IC50 did it give?
A: < 0.1 µM

Q: For NS(=O)(=O)c1ccc2c(Oc3ccc(C(F)(F)F)cc3)cccc2c1 [Compound 117, 5-(4-(trifluoromethyl)phenoxy)naphthalene-2-sulfonamide], which IC50 is on record?
A: < 0.1 µM

Q: For COc1cc(Oc2ccc(C(F)(F)F)cc2)c2ncc(C(=O)NC(CO)c3ccccn3)cc2c1 (stereo not shown) [Compound 118, N-(2-Hydroxy-1-(pyridin-2-yl)ethyl)-6-methoxy-8-(4-(trifluoromethyl)phenoxy)quinoline-3-carboxamide], which IC50 is on record?
A: < 0.1 µM

Q: For O=C(N[C@H](CO)c1ccccn1)c1ccc2c(Oc3ccc(C(F)(F)F)cc3)cccc2c1 [Compound 119, (S)—N-(2-hydroxy-1-(pyridin-2-yl)ethyl)-5-(4-(trifluoromethyl)phenoxy)-2-naphthamide], which IC50 is on record?
A: < 0.1 µM

Q: With O=C(N[C@@H](CO)c1ccccn1)c1ccc2c(Oc3ccc(C(F)(F)F)cc3)cccc2c1 [Compound 120, (R)—N-(2-hydroxy-1-(pyridin-2-yl)ethyl)-5-(4-(trifluoromethyl)phenoxy)-2-naphthamide] as the molecule, how does the IC50 read?
A: 0.1 to 1 µM

Q: With O=C(NC(CCO)CCO)c1ccc2c(Oc3ccc(C(F)(F)F)cc3)cccc2c1 [Compound 121, N-(1,5-dihydroxypentan-3-yl)-5-(4-(trifluoromethyl)phenoxy)-2-naphthamide] as the molecule, how does the IC50 read?
A: < 0.1 µM

Q: How did the IC50 turn out when C[C@@H](NC(=O)c1ccc2c(Oc3ccc(C(F)(F)F)cc3)cccc2c1)C1CN(CCCCO)C1 [Compound 123, (R)—N-(1-(1-(4-hydroxybutyl)azetidin-3-yl)ethyl)-5-(4-(trifluoromethyl)phenoxy)-2-naphthamide] was run?
A: 0.1 to 1 µM

Q: Which IC50 does the source give for C[C@@H](NC(=O)c1ccc2c(Oc3ccc(C(F)(F)F)cc3)cccc2c1)C1CN(CCF)C1 [Compound 124, (R)—N-(1-(1-(2-fluoroethyl)azetidin-3-yl)ethyl)-5-(4-(trifluoromethyl)phenoxy)-2-naphthamide] here?
A: < 0.1 µM

Q: For C[C@@H](NC(=O)c1ccc2c(Oc3ccc(C(F)(F)F)cc3)cccc2c1)C1CN(CC(F)F)C1 [Compound 125, (R)—N-(1-(1-(2,2-difluoroethyl)azetidin-3-yl)ethyl)-5-(4-(trifluoromethyl)phenoxy)-2-naphthamide], which IC50 is on record?
A: < 0.1 µM

Q: Which IC50 does the source give for C[C@@H](NC(=O)c1ccc2c(Oc3ccc(C(F)(F)F)cc3)cccc2c1)C1CN(C)C1 [Compound 126, (R)—N-(1-(1-methylazetidin-3-yl)ethyl)-5-(4-(trifluoromethyl)phenoxy)-2-naphthamide] here?
A: 0.1 to 1 µM

Q: With C[C@H](NC(=O)c1ccc2c(Oc3ccc(C(F)(F)F)cc3)cccc2c1)C1CN(C)C1 [Compound 127, (S)—N-(1-(1-methylazetidin-3-yl)ethyl)-5-(4-(trifluoromethyl)phenoxy)-2-naphthamide] as the molecule, how does the IC50 read?
A: 1 to 3 µM

Q: C[C@H](NC(=O)c1ccc2c(Oc3ccc(C(F)(F)F)cc3)cccc2c1)C1CN(CCF)C1 [Compound 129, (S)—N-(1-(1-(2-fluoroethyl)azetidin-3-yl)ethyl)-5-(4-(trifluoromethyl)phenoxy)-2-naphthamide] was tested. Which IC50 did it give?
A: 1 to 3 µM

Q: With CCN1CC([C@H](C)NC(=O)c2ccc3c(Oc4ccc(C(F)(F)F)cc4)cccc3c2)C1 [Compound 130, (S)—N-(1-(1-ethylazetidin-3-yl)ethyl)-5-(4-(trifluoromethyl)phenoxy)-2-naphthamide] as the molecule, how does the IC50 read?
A: 0.1 to 1 µM

Q: Which IC50 does the source give for CCN1CC([C@@H](C)NC(=O)c2ccc3c(Oc4ccc(C(F)(F)F)cc4)cccc3c2)C1 [Compound 131, (R)—N-(1-(1-ethylazetidin-3-yl)ethyl)-5-(4-(trifluoromethyl)phenoxy)-2-naphthamide] here?
A: 0.1 to 1 µM

Q: With CC(C)N1CC([C@H](C)NC(=O)c2ccc3c(Oc4ccc(C(F)(F)F)cc4)cccc3c2)C1 [Compound 132, (S)—N-(1-(1-isopropylazetidin-3-yl)ethyl)-5-(4-(trifluoromethyl)phenoxy)-2-naphthamide] as the molecule, how does the IC50 read?
A: 0.1 to 1 µM

Q: For CC(C)N1CC([C@@H](C)NC(=O)c2ccc3c(Oc4ccc(C(F)(F)F)cc4)cccc3c2)C1 [Compound 133, (R)—N-(1-(1-isopropylazetidin-3-yl)ethyl)-5-(4-(trifluoromethyl)phenoxy)-2-naphthamide], which IC50 is on record?
A: 1 to 3 µM

Q: How did the IC50 turn out when C[C@H](NC(=O)c1ccc2c(Oc3ccc(C(F)(F)F)cc3)cccc2c1)C1CN(CC(F)F)C1 [Compound 134, (S)—N-(1-(1-(2,2-difluoroethyl)azetidin-3-yl)ethyl)-5-(4-(trifluoromethyl)phenoxy)-2-naphthamide] was run?
A: 1 to 3 µM

Q: How did the IC50 turn out when C[C@H](NC(=O)c1ccc2c(Oc3ccc(C(F)(F)F)cc3)cccc2c1)C1CN(C2CC2)C1 [Compound 136, (S)—N-(1-(1-cyclopropylazetidin-3-yl)ethyl)-5-(4-(trifluoromethyl)phenoxy)-2-naphthamide] was run?
A: 1 to 3 µM

Q: C[C@@H](NC(=O)c1ccc2c(Oc3ccc(C(F)(F)F)cc3)cccc2c1)C1CN(C2CC2)C1 [Compound 137, (R)—N-(1-(1-cyclopropylazetidin-3-yl)ethyl)-5-(4-(trifluoromethyl)phenoxy)-2-naphthamide] was tested. Which IC50 did it give?
A: < 0.1 µM
